Test results reported in patent US10934305B2, “SHMT inhibitors” (The Trustees of Princeton University, priority 2016, dated 2021).
pIC50: −log10 of the molar value.

Tests used:
HCT116 cells [1] = test: Cell growth assay (resazurin), HCT116 wild-type; assay type: cell-based, human
Description: (§1) Inhibitors of SHMT were evaluated in various cancer cell lines, in the presence and absence of mutations in mitochondrial folate pathway enzymes.
(§2) The described cell lines for Examples 8 and 9 are cultured in 96-well plates in Dulbecco's modified eagle media (DMEM) without pyruvate (CELLGRO) with 10% dialysed fetal bovine serum (Invitrogen) in 5% CO2 at 37° C. Approximately 2,500 cells are plated in each well in 90 uL of media. After 24 hours cells are treated with various concentrations of inhibitor (time=0 hours), with or without formate. Growth was assessed at multiple time points (time=0, 24, 48, 72 hours) through measurement of fluorescence at 595 nm (excitation at 535 nm) on a BioTek micro titer plate reader after incubation with resazurin (0.01 mg/mL for 1.5 hours). IC50 curves are generated from percent inhibition of growth at 72 hours.

[2] = test system: SHMT2 knock-out HCT116 cells; test: Cell growth assay, SHMT2 deletion (knock-out) HCT-116 cells; assay type: cell-based, human; conditions: FIG. 3B
Description: as §1, §2
Clonal deletion cell lines of SHMT1, SHMT2, and SHMT1/2 were generated from the human colorectal carcinoma cell line HCT-116. Paired Cas9 nickase (Cas9n) containing constructs that encoded single-guide RNA sequences targeting SHMT1 or 2 were transiently transfected into cells, and mutant colonies from single clones were picked as described in Ducker et al., (2016) Reversal of Cytosolic One-Carbon Flux Compensates for Loss of the Mitochondrial Folate Pathway, Cell Metab 23, 1140-1153. […]

human SHMT2 = human SHMT2 (Homo sapiens (Human), UniProt P34897); test: SHMT2 in vitro enzymatic assay (coupled with MTHFD2, NADH absorption at 340 nm); assay type: biochemical; conditions: SHMT2 IC50 (μM), Table 2
Description: Inhibition of human SHMT by compounds in this disclosure is evaluated, for example, in their racemic forms in an in vitro assay.
For the SHMT1 and SHMT2 in vitro enzymatic assays, the rate of 5,10-methylene tetrahydrofolate formation catalyzed by SHMT1/2 was indirectly evaluated by coupling with excess MTHFD2, which converts NAD+ to NADH allowing for reaction monitoring by absorption at 340 nm. […] Inhibition of initial reaction velocity was determined by adding various inhibitors at different concentrations and monitored as described. IC50 may be calculated based on this assay.

Su-DHL-2 cells = test: Cellular growth assay (cell count), Su-DHL-2 DLBCL line; assay type: cell-based, human; conditions: Su-DHL-2, 5 μM inhibitor + 1 mM formate
Description: (§3) Jurkat, REH, Farage, Daudi, Su-DHL2, Su-DHL-4, Su-DHL-6 cells were purchased from ATCC. Cells were subcultured in RPMI supplemented with 10% FBS. For growth assays, cells were seeded at 2×10^5/mL in 5 mL growth media in 12.5 cm flasks. Media was supplemented with sodium formate (1 mM), additional glycine (100 mg/L) and an SHMTi (5 uM). Cells were sampled daily, and counted using trypan blue staining and light microscopy.

Jurkat cells = test: Cellular growth assay, Jurkat T-cell leukemia line; assay type: cell-based, human; conditions: 5 μM inhibitor + 1 mM sodium formate
Description: as §3

HCT116 cells [3] = test: Formate rescue assay in cell growth assay; assay type: cell-based, human; conditions: for rescue of effects on cell growth by addition of formate: Table 5 cells
Description: Application of formate is shown to rescue the anti-growth effect in certain human cells treated with SHMT inhibitors in a cell growth assay.
as §2

8988T cells = test: Growth of pancreatic cancer cell line 8988T; assay type: cell-based, human; conditions: FIG. 9E
Su-DHL4 cells [4] = test: Apoptosis by flow cytometry (Annexin V surface staining); assay type: cell-based, human
From the text: Apoptosis was enhanced by co-treatment with formate. In contrast, as expected, formate rescued Jurkat E6-1 leukemia cells from apoptosis (FIG. 11C). Without wishing to be bound by theory, it is hypothesized that the failure of formate to rescue growth in the DLBCL cell lines is due to a requirement for both glycine and 1C units made by SHMT in these cells. When glycine is limiting, formate can enhance the cytotoxicity of SHMT inhibition. […] Mechanistically, by supplying 5,10-methylene-THF, formate may drives residual SHMT enzymatic function in the […] direction.
In contrast, cell growth is further decreased in Su-DHL4 cells by addition of formate. This can be further exacerbated by removal of glycine from the media. […] Using flow cytometry, apoptosis of Su-DHL4 cells were studied with AnnexinV surface staining (FIGS. 12D and 12E).

Su-DHL4 cells [5] = test: Cellular growth assay, Su-DHL4 DLBCL line; assay type: cell-based, human; conditions: SU-DHL4, RPMI, FIG. 12C
Description: as §3

human SHMT2, sequence (P34897 30-504): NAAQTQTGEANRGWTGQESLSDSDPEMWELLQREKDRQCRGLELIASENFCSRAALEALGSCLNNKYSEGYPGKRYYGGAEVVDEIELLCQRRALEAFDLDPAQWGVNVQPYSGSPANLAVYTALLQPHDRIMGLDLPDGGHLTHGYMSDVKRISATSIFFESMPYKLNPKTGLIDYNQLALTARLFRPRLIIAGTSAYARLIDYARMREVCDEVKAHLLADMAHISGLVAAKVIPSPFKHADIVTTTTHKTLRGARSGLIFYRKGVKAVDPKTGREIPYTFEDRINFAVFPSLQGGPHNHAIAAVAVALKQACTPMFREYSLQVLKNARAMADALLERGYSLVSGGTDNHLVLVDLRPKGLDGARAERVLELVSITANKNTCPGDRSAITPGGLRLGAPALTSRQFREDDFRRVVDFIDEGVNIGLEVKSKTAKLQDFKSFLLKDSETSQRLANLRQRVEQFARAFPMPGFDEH

Cc1n[nH]c2c1C(c1cc(C#CCCCO)cc(C(F)(F)F)c1)(C(C)C)C(C#N)=C(N)O2 (stereo not drawn) [Compound 61, 6-amino-4-(3-(5-hydroxypent-1-yn-1-yl)-5-(trifluoromethyl)phenyl)-4-isopropyl-3-methyl-1,4-dihydropyrano[2,3-c]pyrazole-5-carbonitrile]
growth (proliferation) of HCT116 cells (HCT116 cells [1]; native HCT116, FIG. 3A): inhibited growth | growth of SHMT2 knock-out HCT116 cells versus native [2]: increased potency

Cc1n[nH]c2c1C(c1cc(C#CCCC(=O)O)cc(C(F)(F)F)c1)(C(C)C)C(C#N)=C(N)O2 (racemic) [1 (enantiomeric mixture)]
IC50 (human SHMT2): 0.00065 µM

Cc1n[nH]c2c1[C@@](c1cc(C(F)(F)F)cc(C(F)(F)F)c1)(C(C)C)C(C#N)=C(N)O2 [HK-16 (PK-2)]
rescue of growth inhibition by formate (Su-DHL-2 cells): not rescued | rescue of growth inhibition by formate (Jurkat cells): significantly rescued

Cc1n[nH]c2c1C(c1cc(N3CCCC3)cc(C(F)(F)F)c1)(C(C)C)C(C#N)=C(N)O2 (stereo not drawn) [HK-X1]
rescue of effects on cell growth by addition of formate (HCT116 cells [3]): rescued

Cc1n[nH]c2c1C(c1cc(CO)cc(-c3ccccc3)c1)(C(C)C)C(C#N)=C(N)O2 (stereo not drawn) [HK-X2]
concentration impairing cell growth (8988T cells): < 100 nM | apoptotic fraction of cells (Su-DHL4 cells [4]; Su-DHL4, inhibitor alone (control 2%)): 8% | apoptotic fraction of cells (Su-DHL4 cells [4]; Su-DHL4, inhibitor in the presence of formate): 15% | apoptosis by Annexin V surface staining (Su-DHL4 cells [4]; Su-DHL-4): induced apoptosis | IC70 (Su-DHL4 cells [5]): 5000 nM | rescue of effects on cell growth by addition of formate (HCT116 cells [3]): rescued

Cc1n[nH]c2c1C(c1cc(C#CCCC(=O)O)cc(C(F)(F)F)c1)(C(C)C)C(C#N)=C(N)O2 (stereo not drawn) [1 (enatiomerically active peak)]
pIC50 (HCT116 cells [1]; Table 2, read-out: HCT Cell IC50): 5.87 | IC50 (human SHMT2): 0.00079 µM | % formate rescue (HCT116 cells [3]; HCT cells, Table 2): 94.96%
